Test results published in EP4542231A1, “METHODS FOR IDENTIFYING AND STRATIFYING CANCERS AND CANCER PATIENTS BASED ON P2X4 RECEPTOR EXPRESSION” (Johann-Wolfgang-Goethe-Universität Frankfurt am Main, priority 2023, dated 2025).

What was measured:
[1] = tested on: human CRC tumor organoids; test: Survival of human CRC tumor organoids in response to 5-FU in the absence or presence of 5-BDBD; assay type: cell-based; conditions: colorectal cancer organoids that do not express P2X4 protein; 5-FU +/- P2X4 inhibitor (Fig. 3C)
Description: (§1) Survival of SU-DHL5 cells in response to doxorubicin in the absence or presence of 5-BDBD (B). Survival of human CRC tumor organoids in response to 5-FU in the absence or presence of 5-BDBD (C).
(§2) The inventors had previously shown that blocking P2X4 would sensitize organoids to 5-FU treatment (Schmitt et al, Nature, 2022). The inventors now confirmed that these organoids indeed express P2X4 (Fig. 3A, CRC-organoid #1).

SU-DHL5 lymphoma cells = test: Survival of SU-DHL5 cells in response to doxorubicin in the absence or presence of 5-BDBD; assay type: cell-based; conditions: lymphoma cells that do not express P2X4 protein; doxorubicin +/- 5-BDBD (Fig. 3B)
Description: as §1, §2

[2] = tested on: ATP-induced S6 phosphorylation in PDTOs; conditions: selective P2X4, P2X1 or P2X7 inhibition; cited from earlier work
[3] = tested on: human CRC tumor organoids; conditions: organoids that express P2X4 (CRC-organoid #1); previously shown, Schmitt et al, Nature, 2022; cited from earlier work

## O=C1CN=C(c2cccc(Br)c2)c2oc3ccccc3c2N1 [5-BDBD, 5-(3-Bromophenyl)-1,3-dihydro-2H-Benzofuro[3,2-e]-1,4-diazepin-2-one]
[1]
  sensitization towards P2X4 inhibition: no sensitization
SU-DHL5 lymphoma cells
  sensitization towards P2X4 inhibition: no sensitization
[2]
  ATP-induced S6 phosphorylation: reduced
[3]
  sensitization of organoids to 5-FU treatment: sensitize

## Clc1cccc(-c2nnnn2Cc2cccnc2)c1Cl [A-438079]
[2]
  ATP-induced S6 phosphorylation: no effect

## O=C(Nc1ccc(C(=O)Nc2ccc(C(=O)Nc3ccc(S(=O)(=O)O)c4cc(S(=O)(=O)O)cc(S(=O)(=O)O)c34)cc2)cc1)Nc1ccc(C(=O)Nc2ccc(C(=O)Nc3ccc(S(=O)(=O)O)c4cc(S(=O)(=O)O)cc(S(=O)(=O)O)c34)cc2)cc1 [NF279]
[2]
  ATP-induced S6 phosphorylation: no effect
